Source: the CombiSolv-Exp solvation set (Vermeire and Green 2021)

Assay: solvent given as SMILES

CC(C)Cl
Details | solvation free energy, 298 K [kcal/mol]
in C=CCCCCCCCCCCCCCC | -2.78
in O | -0.23

FC(F)(F)F
Details | solvation free energy, 298 K [kcal/mol]
in Brc1ccccc1 | 1.57
in C1CCOC1 | 1
in C1COCCO1 | 1.38
in CC(C)(C)O | 0.8
in CC(C)CC(C)(C)C | 0.56
in CC(C)CO | 1
in CCC(C)O | 1.01
in CCCCCC | 0.49
in CCCCCCC | 0.62
in CCCCCCCC | 0.72
in CCCCCCCC(=O)OCC(COC(=O)CCCCCCC)OC(=O)CCCCCCC | 1.4
in CCCCCCCCC | 0.8
in CCCCCCCCCC | 0.86
in CCCCCCCCCCC | 0.92
in CCCCCCCCCCCC | 0.97
in CCCCCCCCCCCCC | 1.02
in CCCCCCCCCCCCCC | 1.06
in CCCCCCCCCCCCCCC | 1.1
in CCCCCCCCCCCCCCCC | 1.11
in CCCCCCCCCCCO | 1.39
in CCCCCCCCCCO | 1.36
in CCCCCCCCCO | 1.32
in CCCCCCCCO | 1.27
in CCCCCCCO | 1.25
in CCCCCCO | 1.21
in CCCCCO | 1.16
in CCCCO | 1.1
in CCCO | 1.04
in CCO | 0.98
in CN1CCCC1=O | 1.8
in CN(C)C=O | 1.56
in CO | 1
in Cc1ccc(C)cc1 | 1.11
in Cc1cccc(C)c1 | 1.13
in Cc1ccccc1C | 1.21
in ClC(Cl)(Cl)Cl | 0.82
in Clc1ccccc1 | 1.3
in O | 3.13
in O=C1CCCC1 | 1.36
in O=C1CCCCC1 | 1.41

C1CCNC1
Details | solvation free energy, 298 K [kcal/mol]
in C1CCCCC1 | -4.19
in CCCCCCCCO | -5.55
in O | -5.48

CCc1ccc2c(c1)C(=O)c1ccccc1C2=O
Details | solvation free energy, 298 K [kcal/mol]
in C1CCCCC1 | -12.2
in C1CCOC1 | -14.2
in C1COCCO1 | -14.1
in CC1CCCCC1 | -12.1
in CC(C)CC(C)(C)C | -11.6
in CC(C)CCO | -12.2
in CC(C)CO | -12.1
in CC(C)O | -12.1
in CC(C)OC(C)C | -12.4
in CCC(C)O | -12.3
in CCCC(C)O | -12.3
in CCCCC(CC)CO | -12.4
in CCCCCC | -11.9
in CCCCCCC | -12
in CCCCCCCC | -12
in CCCCCCCCCC | -12
in CCCCCCCCO | -12.5
in CCCCCCCO | -12.5
in CCCCCCO | -12.4
in CCCCCO | -12.4
in CCCCCl | -13.5
in CCCCO | -12.3
in CCCCOC(C)=O | -13.4
in CCCCOCCCC | -12.6
in CCCO | -12.1
in CCO | -12.6
in CCOC(C)=O | -13.5
in CO | -12.1
in COC(C)=O | -13.7
in O | -6.57

Clc1cc2c(cc1Cl)Oc1cc(Cl)c(Cl)cc1O2
Details | solvation free energy, 298 K [kcal/mol]
in O | -3.37

CC1=CC(=O)C(C(C)C)CC1 (stereo unspecified)
Details | solvation free energy, 298 K [kcal/mol]
in O | -4.51

CCCOC(=O)CC
Details | solvation free energy, 298 K [kcal/mol]
in O | -2.45

CC=CC
Details | solvation free energy, 298 K [kcal/mol]
in CC(=O)N(C)C | -2.17
in CC(C)=O | -2.47
in CCOC(C)=O | -2.77
in CN(C)C=O | -2.11
in O | 1.34
in O=CN1CCOCC1 | -1.45

C=C1CC2CCC1C2(C)C (stereo unspecified)
Details | solvation free energy, 298 K [kcal/mol]
in O | 0.52

C1CCCCCCC1
Details | solvation free energy, 298 K [kcal/mol]
in CCCCCCCCCCCCCCCC | -5.55
in CN1CCCC1=O | -4.77
in CN(C)C=O | -4.39
in COCCO | -4.52
in CS(C)=O | -3.85
in N#CCCCCC#N | -4.01
in NCCO | -3
in O | 0.91

COC(=O)c1cc([N+](=O)[O-])cc([N+](=O)[O-])c1
Details | solvation free energy, 298 K [kcal/mol]
in CN(C)C=O | -13.3
in O | -8.92

CC(C)Br
Details | solvation free energy, 298 K [kcal/mol]
in C=CCCCCCCCCCCCCCC | -3.29
in O | -0.48

Cc1ccc([N+](=O)[O-])cc1
Details | solvation free energy, 298 K [kcal/mol]
in O | -4.96

C=C(C)C1CC=C(C)C(OC(C)=O)C1 (stereo unspecified)
Details | solvation free energy, 298 K [kcal/mol]
in O | -4

CC(=O)N(C)C
Details | solvation free energy, 298 K [kcal/mol]
in C1CCCCC1 | -4.97
in C=CCCCCCCC=C | -5.22
in CC(C)CC(C)(C)C | -5.19
in CCCCCCCCCCCCCCCC | -4.26
in O | -8.15
in [2H]O[2H] | -7.78
in c1ccccc1 | -6.41

Oc1ccccc1I
Details | solvation free energy, 298 K [kcal/mol]
in O | -6.21

CCC(C)OC(C)CC (stereo unspecified)
Details | solvation free energy, 298 K [kcal/mol]
in O | -0.8

Cc1c(C)c(C)c(C)c(C)c1C
Details | solvation free energy, 298 K [kcal/mol]
in CCCCCCCCO | -8.61
in O | -1.95

Cc1ccccc1C(C)C
Details | solvation free energy, 298 K [kcal/mol]
in O | -0.82

CCCCCCCC
Details | solvation free energy, 298 K [kcal/mol]
in Brc1ccccc1 | -5.05
in C1CCCCC1 | -5.54
in C1CCOC1 | -5.32
in C1COCCO1 | -4.49
in C=CCCCC | -5.39
in C=CCCCCCC | -5.28
in C=CCCCCCCCC | -5.23
in CC1COC(=O)O1 | -3.01
in CC#N | -3.63
in CC(=O)N(C)C | -3.96
in CC(=O)O | -3.96
in CC(=O)c1ccccc1 | -4.29
in CC(C)(C)O | -4.62
in CC(C)=O | -4.41
in CC(C)CC(C)(C)C | -5.32
in CC(C)CCCC(C)CCCC(C)CCCCC(C)CCCC(C)CCCC(C)C | -4.83
in CC(C)CCO | -4.61
in CC(C)O | -4.4
in CC(C)OC(C)C | -5.29
in CC(Cl)Cl | -4.66
in CC(O)CO | -2.84
in CCBr | -5.39
in CCC(C)(C)OC | -5.28
in CCC(C)=O | -4.69
in CCCC#N | -4.33
in CCCC(=O)OCC | -4.94
in CCCC(C)=O | -4.81
in CCCCC | -5.43
in CCCCC(CC)COC(=O)CCCCC(=O)OCC(CC)CCCC | -4.69
in CCCCC(CC)COC(=O)c1ccccc1C(=O)OCC(CC)CCCC | -4.43
in CCCCCC | -5.42
in CCCCCC(C)=O | -4.83
in CCCCCCC | -5.37
in CCCCCCCCC | -5.23
in CCCCCCCCC=CCCCCCCCC(=O)OCC(COC(=O)CCCCCCCC=CCCCCCCCC)OC(=O)CCCCCCCC=CCCCCCCCC | -4.75
in CCCCCCCCCC | -5.2
in CCCCCCCCCCCC | -5.11
in CCCCCCCCCCCCCCCC | -5.01
in CCCCCCCCCCCCO | -4.65
in CCCCCCCCCCO | -4.53
in CCCCCCCCO | -4.62
in CCCCCCOC(C)=O | -4.92
in CCCCCO | -4.62
in CCCCO | -4.49
in CCCCOC(=O)c1ccccc1C(=O)OCCCC | -4.5
in CCCCOC(C)=O | -4.85
in CCCCOCCCC | -5.25
in CCCO | -4.41
in CCN1CCCC1=O | -4.09
in CCN(CC)C(C)=O | -4.35
in CCN(CC)CC | -5.5
in CCNC(C)=O | -4.09
in CCNC=O | -3.79
in CCO | -4.3
in CCOC(=O)c1ccccc1C(=O)OCC | -3.95
in CCOC(C)=O | -4.71
in CCOCC | -5.41
in CCOCCOCCOCC | -4.65
in CCOc1ccccc1 | -4.77
in CN1CCCC1=O | -3.77
in CN1CCCCC1=O | -4.02
in CN(C)C=O | -3.75
in CN(C)P(=O)(N(C)C)N(C)C | -4.26
in CNC=O | -3.34
in CO | -3.86
in COC(C)=O | -4.49
in COCCO | -3.76
in COCCOCCOCCOCCOC | -4.01
in COc1ccccc1 | -4.7
in CS(C)=O | -2.79
in Cc1ccc(C)cc1 | -5.28
in Cc1cccc(C)n1 | -4.92
in Cc1cccc(O)c1 | -4.08
in Cc1ccccc1 | -5.29
in Cc1ccccn1 | -4.78
in ClC(Cl)(Cl)Cl | -5.45
in ClC(Cl)Cl | -5.32
in ClCCCl | -4.71
in ClCCl | -5.08
in Clc1ccccc1 | -5.21
in FC(F)(F)C(F)(F)C(F)(F)C(F)(F)C(F)(F)C(F)(F)C(F)(F)C(F)(F)F | -3.45
in FC(F)(F)C(F)(F)C(F)(F)C(F)(F)C(F)(F)C(F)(F)F | -3.52
in Fc1c(F)c(F)c(F)c(F)c1F | -4.83
in Fc1ccccc1 | -5.11
in ICI | -3.3
in Ic1ccccc1 | -4.74
in N#CCCCCC#N | -2.96
in NC=O | -1.27
in NCCO | -1.74
in Nc1ccccc1 | -3.52
in O=C1CCCCC1 | -4.63
in O=C1CCCO1 | -3.22
in O=CN1CCOCC1 | -3.04
in OCCCCCO | -3.06
in OCCCCO | -2.87
in OCCCO | -2.59
in OCCOCCO | -2.35
in OCCOCCOCCOCCO | -2.71
in OCc1ccccc1 | -3.81
in S=C=S | -5.53
in c1ccc2ncccc2c1 | -4.22
in c1ccc(COCc2ccccc2)cc1 | -4.28
in c1ccccc1 | -5.25
in c1ccncc1 | -4.49

Nc1cnn(-c2ccccc2)c(=O)c1Cl
Details | solvation free energy, 298 K [kcal/mol]
in O | -16.4

ClC1=C(Cl)C2(Cl)C3C(Cl)C=CC3C1(Cl)C2(Cl)Cl (stereo unspecified)
Details | solvation free energy, 298 K [kcal/mol]
in CCCCCCCCC=CCCCCCCCC(=O)OCC(COC(=O)CCCCCCCC=CCCCCCCCC)OC(=O)CCCCCCCC=CCCCCCCCC | -13.5
in CCCCCCCCO | -10.6
in O | -2.55

O=[N+]([O-])c1ccc(Cl)c(Cl)c1Cl
Details | solvation free energy, 298 K [kcal/mol]
in CCCCCCCCC=CCCCCCCCC(=O)OCC(COC(=O)CCCCCCCC=CCCCCCCCC)OC(=O)CCCCCCCC=CCCCCCCCC | -10.1
in O | -4.07

FC(F)C(F)(F)F
Details | solvation free energy, 298 K [kcal/mol]
in CCCCCCCC(=O)OCC(COC(=O)CCCCCCC)OC(=O)CCCCCCC | -0.79
in CCCCCCCCC | -0.39
in CCCCCCCCO | -0.57
in CN(C)C=O | -1.54
in O | 1.45
